Laboratory results published in patent publication US9532554B2, “Method for inducing hepatocellular variation, and production method for chimeric non-human animal having humanized liver” (PUBLIC UNIVERSITY CORPORATION YOKOHAMA CITY UNIVERSITY, priority 2011, dated 2017).

Biological target: T1, human CYP2D6 (Homo sapiens, UniProt P10635)
T1 construct: from tissue; host or cells: humanized liver of chimeric mice (transplanted human hepatic cells), in vivo
Assay: Debrisoquine metabolism to 4-OHDB in chimeric mice
Type: in vivo
Conditions: debrisoquine 2.0 mg/kg orally, chimera group vs sham-operated group
Description: Debrisoquine, which serves as a common phenotyping agent for human CYP2D6, is metabolized to 4-hydroxydebrisoquine (4-OHDB) in humans but is negligible in mice.
Debrisoquine was orally administered at a dose of 2.0 mg/kg. The data was obtained 8 hours after the oral administration and is indicated by the mean±SD.

T1 sequence (P10635 whole entry): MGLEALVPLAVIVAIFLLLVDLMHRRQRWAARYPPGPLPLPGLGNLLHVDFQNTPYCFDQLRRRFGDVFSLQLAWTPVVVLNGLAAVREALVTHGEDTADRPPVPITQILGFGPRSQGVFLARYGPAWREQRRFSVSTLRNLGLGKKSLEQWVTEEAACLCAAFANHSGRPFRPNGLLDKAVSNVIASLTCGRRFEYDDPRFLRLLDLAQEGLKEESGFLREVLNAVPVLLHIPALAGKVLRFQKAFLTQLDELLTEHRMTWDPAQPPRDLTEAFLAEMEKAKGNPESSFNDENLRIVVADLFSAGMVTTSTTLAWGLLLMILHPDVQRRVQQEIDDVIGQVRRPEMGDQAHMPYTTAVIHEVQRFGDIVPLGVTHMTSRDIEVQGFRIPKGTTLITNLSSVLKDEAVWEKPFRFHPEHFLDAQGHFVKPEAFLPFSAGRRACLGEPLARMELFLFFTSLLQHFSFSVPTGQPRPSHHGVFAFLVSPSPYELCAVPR

N=C(N)N1CCc2ccccc2C1 [debrisoquine, Debrisoquine]
plasma concentration of 4-OHDB following oral administration of debrisoquine: higher in the chimera group than in the sham-operated group
